Data as given in ChEMBL document CHEMBL6177932 (J Med Chem, 2024).
Values belong to the compound of their own block, whether it stands above or below them. Active and inactive are the calls of the source. The rule behind the calls is not given here.

Experiments:
MDA-MB-231 [1] = assay: Cytotoxicity against human MDA-MB-231 cells assessed as reduction in cell viability at 100 nM measured after 24 hrs in presence of SAHA by RealTime-glo cell viability assay; assay type: functional, cell-based
[2] = Toxicity in 4T1 cells implanted BALB/c mouse assessed as body weight loss at 0.25 ug/kg, ip administered daily for 18 days; assay type: organism-based; details: in vivo, 0.00025 mg/kg, 432 h, dose 0.25 µg/kg, time 18 day
Mus musculus [3] = assay: Immunomodulatory activity in mouse 4T1 cells implanted BALB/c mouse assessed as reduction in Ccl2 gene expression at 0.25 ug/kg, ip administered daily for 18 days by RT-qPCR analysis; assay type: functional, organism-based; details: dose 0.25 µg/kg, time 18.0 day
B16-F10 [4] = assay: Antitumor activity against mouse B16-F10 cells implanted in C57BL/6 mouse assessed as reduction in tumor burden at 0.25 ug/kg, ip administered every second day for 18 days; assay type: functional, organism-based; details: dose 0.25 µg/kg, time 18.0 day
Mus musculus [5] = assay: Immunomodulatory activity in mouse 4T1 cells implanted BALB/c mouse assessed as reduction in Ccl20 gene expression at 0.25 ug/kg, ip administered daily for 18 days by RT-qPCR analysis; assay type: functional, organism-based; details: dose 0.25 µg/kg, time 18.0 day
4T1 [6] = assay: Antitumor activity against mouse 4T1 cells implanted in BALB/c mouse assessed as reduction in tumor burden at 0.25 ug/kg, ip administered daily for 18 days in presence of SAHA relative to control; assay type: functional; parameters: scale not given: the % may be the effect or the level left; details: dose 0.25 µg/kg, time 18 day
4T1 [7] = assay: Cytotoxicity against mouse 4T1 cells assessed as reduction in cell viability at 100 nM measured after 24 hrs by RealTime-glo cell viability assay; assay type: functional, cell-based
4T1 [8] = assay: Cytotoxicity against mouse 4T1 cells assessed as reduction in cell viability at 100 nM measured after 24 hrs in presence of SAHA by RealTime-glo cell viability assay; assay type: functional, cell-based
Mus musculus [9] = assay: Immunomodulatory activity in mouse 4T1 cells implanted BALB/c mouse assessed as reduction in Ccl5 gene expression at 0.25 ug/kg, ip administered daily for 18 days by RT-qPCR analysis; assay type: functional, organism-based; details: dose 0.25 µg/kg, time 18.0 day
B16-F10 [10] = assay: Antitumor activity against mouse B16-F10 cells implanted in C57BL/6 mouse assessed as reduction in tumor burden at 0.25 ug/kg, ip administered every second day for 18 days in presence of SAHA; assay type: functional, organism-based; details: dose 0.25 µg/kg, time 18.0 day
Mus musculus [11] = assay: Immunomodulatory activity in mouse 4T1 cells implanted BALB/c mouse assessed as reduction in Cxcl10 gene expression at 0.25 ug/kg, ip administered daily for 18 days by RT-qPCR analysis; assay type: functional, organism-based; details: dose 0.25 µg/kg, time 18.0 day
[12] = Toxicity in 4T1 cells implanted BALB/c mouse assessed as stress at 0.25 ug/kg, ip administered daily for 18 days; assay type: organism-based; details: in vivo, 0.00025 mg/kg, 432 h, dose 0.25 µg/kg, time 18 day
[13] = Toxicity in mouse B16-F10 cells implanted C57BL/6 mouse at 0.25 ug/kg, ip administered daily for 28 days; assay type: organism-based; details: in vivo, 0.00025 mg/kg, dose 0.25 µg/kg, time 28 day
MDA-MB-231 [14] = assay: Cytotoxicity against human MDA-MB-231 cells assessed as reduction in cell viability at 100 nM measured after 24 hrs by RealTime-glo cell viability assay; assay type: functional, cell-based
[15] = Toxicity in mouse B16-F10 cells implanted C57BL/6 mouse at 0.25 ug/kg, ip administered daily for 28 days in presence of SAHA; assay type: organism-based; details: in vivo, 0.00025 mg/kg, dose 0.25 µg/kg, time 28 day
[16] = Toxicity in 4T1 cells implanted BALB/c mouse assessed as body weight loss at 0.25 ug/kg, ip administered daily for 18 days in presence of SAHA; assay type: organism-based; details: in vivo, 0.00025 mg/kg, 432 h, dose 0.25 µg/kg, time 18 day
Mus musculus [17] = assay: Immunomodulatory activity in mouse 4T1 cells implanted BALB/c mouse assessed as reduction in total macrophage infiltration into tumors at 0.25 ug/kg, ip administered daily for 18 days by F4/80 staining based immunofluorescence microscopy; assay type: functional, organism-based; details: dose 0.25 µg/kg, time 18.0 day
Mus musculus [18] = assay: Immunomodulatory activity in mouse 4T1 cells implanted BALB/c mouse assessed as induction of Il1a gene expression at 0.25 ug/kg, ip administered daily for 18 days by RT-qPCR analysis; assay type: functional, organism-based; details: dose 0.25 µg/kg, time 18.0 day
[19] = Toxicity in 4T1 cells implanted BALB/c mouse assessed as stress at 0.25 ug/kg, ip administered daily for 18 days in presence of SAHA; assay type: organism-based; details: in vivo, 0.00025 mg/kg, 432 h, dose 0.25 µg/kg, time 18 day
[20] = Toxicity in mouse B16-F10 cells implanted C57BL/6 mouse assessed as effect on body weight at 0.25 ug/kg, ip administered daily for 28 days; assay type: organism-based; details: in vivo, 0.00025 mg/kg, dose 0.25 µg/kg, time 28 day
[21] = Toxicity in mouse B16-F10 cells implanted C57BL/6 mouse assessed as effect on body weight at 0.25 ug/kg, ip administered daily for 28 days in presence of SAHA; assay type: organism-based; details: in vivo, 0.00025 mg/kg, dose 0.25 µg/kg, time 28 day
[22] = Toxicity in mouse B16-F10 cells implanted C57BL/6 mouse at 80 mg/kg, ip administered daily for 28 days in presence of 1,25D; assay type: organism-based; details: in vivo, time 28 day
B16-F10 [23] = assay: Antitumor activity against mouse B16-F10 cells implanted in C57BL/6 mouse assessed as reduction in tumor burden at 80 mg/kg, ip administered every second day for 18 days in presence of 1,25D; assay type: functional, organism-based; details: time 18.0 day
4T1 [24] = assay: Antitumor activity against mouse 4T1 cells implanted in BALB/c mouse assessed as reduction in tumor burden at 80 mg/kg, ip administered daily for 18 days in presence of 1,25D relative to control; assay type: functional; parameters: scale not given: the % may be the effect or the level left; details: time 18 day
[25] = Toxicity in 4T1 cells implanted BALB/c mouse assessed as body weight loss at 80 mg/kg, ip administered daily for 18 days in presence of 1,25D; assay type: organism-based; details: in vivo, 432 h, time 18 day
[26] = Toxicity in 4T1 cells implanted BALB/c mouse assessed as stress at 80 mg/kg, ip administered daily for 18 days; assay type: organism-based; details: in vivo, 432 h, time 18 day
[27] = molecular target: T1, Protein deacetylase HDAC6 (Mus musculus) (UniProt Q9Z2V5); assay: Inhibition of HDAC6 in mouse 4T1 cells assessed as induction of tubulin acetylation at 100 nM measured after 6 hrs by Western blot analysis; assay type: cell-based
T1 sequence (whole entry): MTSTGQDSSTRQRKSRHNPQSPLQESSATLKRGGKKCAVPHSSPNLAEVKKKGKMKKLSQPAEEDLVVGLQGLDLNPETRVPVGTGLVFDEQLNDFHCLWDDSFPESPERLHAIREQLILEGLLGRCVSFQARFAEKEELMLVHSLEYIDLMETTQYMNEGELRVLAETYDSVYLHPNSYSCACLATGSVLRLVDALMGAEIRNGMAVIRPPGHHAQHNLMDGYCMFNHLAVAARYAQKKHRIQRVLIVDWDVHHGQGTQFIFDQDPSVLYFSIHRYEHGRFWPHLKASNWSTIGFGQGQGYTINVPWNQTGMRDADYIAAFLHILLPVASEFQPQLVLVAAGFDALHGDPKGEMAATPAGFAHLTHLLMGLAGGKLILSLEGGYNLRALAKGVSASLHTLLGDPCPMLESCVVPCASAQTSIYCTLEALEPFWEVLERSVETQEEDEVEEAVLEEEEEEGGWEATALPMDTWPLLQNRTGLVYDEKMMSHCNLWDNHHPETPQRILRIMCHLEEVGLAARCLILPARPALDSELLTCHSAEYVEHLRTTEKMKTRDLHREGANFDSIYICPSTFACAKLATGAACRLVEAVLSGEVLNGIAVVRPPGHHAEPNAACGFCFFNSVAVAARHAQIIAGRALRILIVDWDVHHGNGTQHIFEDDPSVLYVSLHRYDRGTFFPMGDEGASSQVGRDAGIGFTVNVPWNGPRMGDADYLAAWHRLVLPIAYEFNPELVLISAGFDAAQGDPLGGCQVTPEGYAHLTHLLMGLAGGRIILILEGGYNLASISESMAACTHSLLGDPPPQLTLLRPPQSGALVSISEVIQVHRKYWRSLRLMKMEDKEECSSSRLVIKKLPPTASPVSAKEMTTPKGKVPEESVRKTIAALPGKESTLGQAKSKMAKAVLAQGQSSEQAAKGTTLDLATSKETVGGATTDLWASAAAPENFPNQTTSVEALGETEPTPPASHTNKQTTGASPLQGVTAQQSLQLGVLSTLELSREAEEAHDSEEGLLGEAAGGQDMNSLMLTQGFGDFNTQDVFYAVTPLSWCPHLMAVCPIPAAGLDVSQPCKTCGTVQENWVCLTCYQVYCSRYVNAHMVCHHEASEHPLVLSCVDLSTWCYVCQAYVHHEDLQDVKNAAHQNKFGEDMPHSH

4T1 [28] = assay: Cytotoxicity against mouse 4T1 cells assessed as reduction in cell viability at 100 nM measured after 24 hrs in presence of 1,25D by RealTime-glo cell viability assay; assay type: functional, cell-based
MDA-MB-231 [29] = assay: Cytotoxicity against human MDA-MB-231 cells assessed as reduction in cell viability at 100 nM measured after 24 hrs in presence of 1,25D by RealTime-glo cell viability assay; assay type: functional, cell-based
[30] = Toxicity in mouse B16-F10 cells implanted C57BL/6 mouse at 80 mg/kg, ip administered daily for 28 days; assay type: organism-based; details: in vivo, time 28 day
B16-F10 [31] = assay: Antitumor activity against mouse B16-F10 cells implanted in C57BL/6 mouse assessed as reduction in tumor burden at 80 mg/kg, ip administered every second day for 18 days; assay type: functional, organism-based; details: time 18.0 day
Mus musculus [32] = assay: Immunomodulatory activity in mouse 4T1 cells implanted BALB/c mouse assessed as reduction in total macrophage infiltration into tumors at 80 mg/kg, ip administered daily for 18 days by F4/80 staining based immunofluorescence microscopy; assay type: functional, organism-based; details: time 18.0 day
[33] = Toxicity in mouse B16-F10 cells implanted C57BL/6 mouse assessed as effect on body weight at 80 mg/kg, ip administered daily for 28 days; assay type: organism-based; details: in vivo, time 28 day
[34] = molecular target: T2, Vitamin D3 receptor (Mus musculus) (UniProt P48281); assay: Agonist activity at VDR in mouse B16-F10 cells assessed as induction of Cyp24a1 gene at 100 nM measured after 24 hrs in presence of 1,25D by RT-qPCR analysis; assay type: cell-based; details: filed as agonist
T2 sequence (whole entry): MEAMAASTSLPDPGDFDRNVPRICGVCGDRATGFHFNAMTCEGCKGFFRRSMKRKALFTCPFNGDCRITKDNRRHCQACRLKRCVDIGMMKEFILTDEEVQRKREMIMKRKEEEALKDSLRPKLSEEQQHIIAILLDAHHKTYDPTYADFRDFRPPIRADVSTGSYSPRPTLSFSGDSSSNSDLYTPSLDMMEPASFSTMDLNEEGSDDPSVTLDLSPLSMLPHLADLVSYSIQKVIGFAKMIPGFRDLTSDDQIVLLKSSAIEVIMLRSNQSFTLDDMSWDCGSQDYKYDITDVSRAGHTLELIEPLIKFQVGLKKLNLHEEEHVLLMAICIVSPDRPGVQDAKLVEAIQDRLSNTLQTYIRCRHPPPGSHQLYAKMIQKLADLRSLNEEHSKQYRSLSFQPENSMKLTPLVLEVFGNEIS

[35] = molecular target: T1, Protein deacetylase HDAC6 (Mus musculus); assay: Inhibition of HDAC6 in mouse B16-F10 cells assessed as induction of tubulin acetylation at 100 nM measured after 6 hrs by Western blot analysis; assay type: cell-based
[36] = Toxicity in 4T1 cells implanted BALB/c mouse assessed as stress at 80 mg/kg, ip administered daily for 18 days in presence of 1,25D; assay type: organism-based; details: in vivo, 432 h, time 18 day
[37] = Toxicity in mouse B16-F10 cells implanted C57BL/6 mouse assessed as effect on body weight at 80 mg/kg, ip administered daily for 28 days in presence of 1,25D; assay type: organism-based; details: in vivo, time 28 day
[38] = Toxicity in 4T1 cells implanted BALB/c mouse assessed as body weight loss at 80 mg/kg, ip administered daily for 18 days; assay type: organism-based; details: in vivo, 432 h, time 18 day

Compound: C=C1/C(=C\C=C2/CCC[C@]3(C)[C@@H]([C@H](C)CCCC(C)(C)O)CC[C@@H]23)C[C@@H](O)C[C@@H]1O [CALCITRIOL]
Activity (MDA-MB-231 [1]): Active | Activity [2]: Non-toxic | Activity (Mus musculus [3]): Active | Activity (B16-F10 [4]): Active | Activity (Mus musculus [5]): Active | Activity (4T1 [6]): ~20% | Activity (4T1 [7]): Active | Activity (4T1 [8]): Active | Activity (Mus musculus [9]): Active | Activity (B16-F10 [10]): Active | Activity (Mus musculus [11]): Active | Activity [12]: Non-toxic | Activity [13]: Non-toxic | Activity (MDA-MB-231 [14]): Active | Activity [15]: Non-toxic | Activity [16]: Non-toxic | Activity (Mus musculus [17]): Active; Significantly Reduced Macrophage Infiltration Into Tumor | Activity (Mus musculus [18]): Active | Activity [19]: Non-toxic | Activity [20]: Non-toxic | Activity [21]: Non-toxic

inhibition [27]: Active | Activity [34]: Active | inhibition [35]: Active
Compound: O=C(CCCCCCC(=O)Nc1ccccc1)NO [VORINOSTAT]
Activity [22]: Non-toxic | Activity (B16-F10 [23]): Active | Activity (4T1 [24]): ~20% | Activity [25]: Non-toxic | Activity [26]: Non-toxic | Activity (4T1 [28]): Active | Activity (MDA-MB-231 [29]): Active | Activity [30]: Non-toxic | Activity (B16-F10 [31]): Active | Activity (Mus musculus [32]): Active; No Significant Effect Observed | Activity (4T1 [7]): Active | Activity [33]: Non-toxic | Activity (MDA-MB-231 [14]): Active | Activity [36]: Non-toxic | Activity [37]: Non-toxic | Activity [38]: Non-toxic
